Results: PMC6979384, “Characterization of the plant homeodomain (PHD) reader family for their histone tail interactions” (Epigenetics & Chromatin, 2020)

Columns and labels:
Assay in all cases: Histone peptide microarray
Assay type in all cases: binding, human
PHF23 = details: PHF23; sheet "Array Heatmap"; each array performed twice, total n = 4
Outline: (§1)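 GST-tagged PHD finger readers were expressed, purified and applied at 0.5 μM to a microarray of 293 synthetic histone peptides carrying single or combinatorial PTMs, using an optimized protocol. Binding signals are averages with standard deviation from 4 replicates.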

MORC3 (CW) = details: MORC3 (CW); sheet "Array Heatmap"; each array performed twice, total n = 4
Outline: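 Steps: express and purify GST-tagged PHD reader; incubate 0.5 μM protein on a peptide microarray (293 histone peptides, single or combined PTMs) following an optimized protocol; average signal across 4 replicates.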

DPF2 (PPC2W2) = details: DPF2 (PPC2W2); sheet "Array Heatmap"; each array performed twice, total n = 4
Outline: as §1

KDM5B (3) = details: KDM5B (3); sheet "Array Heatmap"; each array performed twice, total n = 4
Outline: as §1

PHF8 = details: PHF8; sheet "Array Heatmap"; each array performed twice, total n = 4
Outline: as §1

ING3 = details: ING3; sheet "Array Heatmap"; each array performed twice, total n = 4
Outline: as §1

DIDO1 = details: DIDO1; sheet "Array Heatmap"; each array performed twice, total n = 4
Outline: as §1

ING4 = details: ING4; sheet "Array Heatmap"; each array performed twice, total n = 4
Outline: as §1

TAF3 = details: TAF3; sheet "Array Heatmap"; each array performed twice, total n = 4
Outline: as §1

KDM7A = details: KDM7A; sheet "Array Heatmap"; each array performed twice, total n = 4
Outline: as §1

KDM4C (TTP) = details: KDM4C (TTP); sheet "Array Heatmap"; each array performed twice, total n = 4
Outline: as §1

BPTF (PB) = details: BPTF (PB); sheet "Array Heatmap"; each array performed twice, total n = 4
Outline: as §1

CHD5 (PPCC) = details: CHD5 (PPCC); sheet "Array Heatmap"; each array performed twice, total n = 4
Outline: as §1

KDM5A (3) = details: KDM5A (3); sheet "Array Heatmap"; each array performed twice, total n = 4
Outline: as §1

SP140L = details: SP140L; sheet "Array Heatmap"; each array performed twice, total n = 4
Outline: as §1

KDM5A (1) = details: KDM5A (1); sheet "Array Heatmap"; each array performed twice, total n = 4
Outline: as §1

MLL5 = details: MLL5; sheet "Array Heatmap"; each array performed twice, total n = 4
Outline: as §1

ING1 = details: ING1; sheet "Array Heatmap"; each array performed twice, total n = 4
Outline: as §1

CHD4 (PPCC) = details: CHD4 (PPCC); sheet "Array Heatmap"; each array performed twice, total n = 4
Outline: as §1

RAG2 = details: RAG2; sheet "Array Heatmap"; each array performed twice, total n = 4
Outline: as §1

PHF2 = details: PHF2; sheet "Array Heatmap"; each array performed twice, total n = 4
Outline: as §1

CHD5 (PCC) = details: CHD5 (PCC); sheet "Array Heatmap"; each array performed twice, total n = 4
Outline: as §1

PHRF1 (RP) = details: PHRF1 (RP); sheet "Array Heatmap"; each array performed twice, total n = 4
Outline: as §1

TRIM66 (PB) = details: TRIM66 (PB); sheet "Array Heatmap"; each array performed twice, total n = 4
Outline: as §1

PHF13 = details: PHF13; sheet "Array Heatmap"; each array performed twice, total n = 4
Outline: as §1

BAZ2B = details: BAZ2B; sheet "Array Heatmap"; each array performed twice, total n = 4
Outline: as §1

AIRE (PP) = details: AIRE (PP); sheet "Array Heatmap"; each array performed twice, total n = 4
Outline: as §1

PHF21A = details: PHF21A; sheet "Array Heatmap"; each array performed twice, total n = 4
Outline: as §1

ING5 = details: ING5; sheet "Array Heatmap"; each array performed twice, total n = 4
Outline: as §1

KDM5B (1) = details: KDM5B (1); sheet "Array Heatmap"; each array performed twice, total n = 4
Outline: as §1

ING2 = details: ING2; sheet "Array Heatmap"; each array performed twice, total n = 4
Outline: as §1

Substance | Array Heatmap value (peptide array signal) (PHF23) | Array Heatmap value (peptide array signal) (MORC3 (CW)) | Array Heatmap value (peptide array signal) (DPF2 (PPC2W2)) | Array Heatmap value (peptide array signal) (KDM5B (3)) | Array Heatmap value (peptide array signal) (PHF8) | Array Heatmap value (peptide array signal) (ING3) | Array Heatmap value (peptide array signal) (DIDO1) | Array Heatmap value (peptide array signal) (ING4) | Array Heatmap value (peptide array signal) (TAF3) | Array Heatmap value (peptide array signal) (KDM7A) | Array Heatmap value (peptide array signal) (KDM4C (TTP)) | Array Heatmap value (peptide array signal) (BPTF (PB)) | Array Heatmap value (peptide array signal) (CHD5 (PPCC)) | Array Heatmap value (peptide array signal) (KDM5A (3)) | Array Heatmap value (peptide array signal) (SP140L) | Array Heatmap value (peptide array signal) (KDM5A (1)) | Array Heatmap value (peptide array signal) (MLL5) | Array Heatmap value (peptide array signal) (ING1) | Array Heatmap value (peptide array signal) (CHD4 (PPCC)) | Array Heatmap value (peptide array signal) (RAG2) | also measured
H4K5ac + K8ac + K12me1 + K16ac: H4 1-23 | 0.5681 | 0.4079 | 0.7404 | 0.5615 | 0.3954 | 0.5746 | 0.7398 | 0.538 | 0.2985 | 0.3906 | 0.5546 | 0.4205 | 0.6457 | 0.4814 | 0.4016 | 0.525 | 0.5904 | 0.5999 | 0.628 | 0.2841 | Array Heatmap value (peptide array signal) (PHF2): 0.5943; Array Heatmap value (peptide array signal) (CHD5 (PCC)): 0.8246; Array Heatmap value (peptide array signal) (PHRF1 (RP)): 0.5035; Array Heatmap value (peptide array signal) (TRIM66 (PB)): 0.6523; Array Heatmap value (peptide array signal) (PHF13): 0.7176; Array Heatmap value (peptide array signal) (BAZ2B): 0.5334; Array Heatmap value (peptide array signal) (AIRE (PP)): 0.4852; Array Heatmap value (peptide array signal) (PHF21A): 0.5148; Array Heatmap value (peptide array signal) (ING5): 0.4233; Array Heatmap value (peptide array signal) (KDM5B (1)): 0.6517; Array Heatmap value (peptide array signal) (ING2): 0.6062
H4K5ac + K8ac + K16ac: H4 1-23 | 0.5402 | 0.3785 | 0.7091 | 0.4621 | 0.3765 | 0.5105 | 0.7386 | 0.4699 | 0.2628 | 0.3432 | 0.487 | 0.3802 | 0.5628 | 0.4685 | 0.3822 | 0.4528 | 0.5646 | 0.5586 | 0.6069 | 0.2519 | Array Heatmap value (peptide array signal) (PHF2): 0.5897; Array Heatmap value (peptide array signal) (CHD5 (PCC)): 0.7848; Array Heatmap value (peptide array signal) (PHRF1 (RP)): 0.4907; Array Heatmap value (peptide array signal) (TRIM66 (PB)): 0.6293; Array Heatmap value (peptide array signal) (PHF13): 0.6186; Array Heatmap value (peptide array signal) (BAZ2B): 0.469; Array Heatmap value (peptide array signal) (AIRE (PP)): 0.4269; Array Heatmap value (peptide array signal) (PHF21A): 0.485; Array Heatmap value (peptide array signal) (ING5): 0.3649; Array Heatmap value (peptide array signal) (KDM5B (1)): 0.6453; Array Heatmap value (peptide array signal) (ING2): 0.5942
